Source: patent publication US8581584B2, “Membrane proteins, mechanisms of action and uses thereof” (priority 2010, dated 2013)

Biological target: transmembrane domain of M2 protein (Influenza A virus, UniProt P0DOF5)
Experiment: solid state NMR spectra of uniformly aligned M2 samples with and without drug
Conditions: five isoleucines 15N labeled; FIG. 31
Source text: Uniformly aligned samples of membrane proteins meant that each molecule in the sample will have the same orientation with respect to the magnetic field axis of the NMR spectrometer. In this way the orientation dependent spin interactions such as anisotropic chemical shifts, dipolar and quadrupolar interactions can be observed. The orientations of the individual atomic sites in the protein reflect the orientation of that particular site with respect to the magnetic field.

transmembrane domain of M2 protein, sequence (P0DOF5 26-46): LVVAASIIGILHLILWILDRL

SMILES: NC12CC3CC(CC(C3)C1)C2 [amantadine]
- change of 15N-Ile resonances in response to drug binding: two of the resonances shift (arrows) dramatically in response to drug binding
